{"source": "patent US9738902B2", "about": "“Modified PYR/PYL receptors activated by ligands” (priority 2013, dated 2017)", "key": {"[1]": {"target": "T1, 6×-His-GFP-PYR1^MANDI and GFP-HAB1 (Arabidopsis thaliana, UniProt O49686, F108A/F159L/K59R/S122G/V81I/Y58H)", "T1 construct": "expressed in transfected cells; host or cells: Nicotiana benthamiana leaves, Agrobacterium tumefaciens GV3101 infiltration", "T1 sequence (O49686 whole entry Y58H/K59R/V81I/F108A/S122G/F159L)": "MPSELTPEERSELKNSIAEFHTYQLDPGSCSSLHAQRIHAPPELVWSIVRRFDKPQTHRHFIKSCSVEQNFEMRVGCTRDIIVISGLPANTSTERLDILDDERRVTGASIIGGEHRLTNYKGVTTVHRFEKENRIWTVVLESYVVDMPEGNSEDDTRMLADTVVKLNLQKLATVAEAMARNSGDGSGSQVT", "T1 sequence (Q9CAJ0 23-511 partner)": "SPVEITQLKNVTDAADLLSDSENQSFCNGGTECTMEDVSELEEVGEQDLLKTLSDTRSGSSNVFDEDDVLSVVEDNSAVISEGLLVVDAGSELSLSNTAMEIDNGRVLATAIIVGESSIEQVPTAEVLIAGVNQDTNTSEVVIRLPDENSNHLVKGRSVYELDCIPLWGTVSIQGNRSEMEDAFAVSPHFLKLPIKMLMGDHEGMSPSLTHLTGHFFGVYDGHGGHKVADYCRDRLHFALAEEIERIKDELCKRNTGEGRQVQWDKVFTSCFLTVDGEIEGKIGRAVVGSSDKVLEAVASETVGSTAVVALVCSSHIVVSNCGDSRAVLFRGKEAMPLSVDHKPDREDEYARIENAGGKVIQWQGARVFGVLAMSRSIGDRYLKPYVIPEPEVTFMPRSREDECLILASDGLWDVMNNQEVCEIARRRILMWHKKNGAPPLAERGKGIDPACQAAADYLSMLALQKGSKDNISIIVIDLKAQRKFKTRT", "assay": "co-precipitation after transient co-expression in leaves", "assay_type": "in vivo, Nicotiana benthamiana", "conditions": "50 μM mandipropamid, 20 hours", "description": "We therefore investigated if the mandipropamid promoted interaction between PYR1^MANDI and the PP2C HAB1 could be observed using similar experiments. To conduct these experiments PYR1^MANDI was cloned as a 6×-His-GFP fusion protein in the vector pEGAD (Cutler et al., 2000). HAB1 was cloned as a GFP fusion protein in the vector pEGAD. Both constructs were transformed into Agrobacterium tumefaciens (GV3101) and utilized in transient expression experiments. The Agrobacterium strains harboring the receptor, PP2C and the silencing suppressor p19 were mixed together in ratios corresponding to 0.1, 1.0 and 0.5 final OD600 units respectively. The mixture was infiltrated into two separate N. benthamiana leaves and 2 days later the leaves were treated with either 50 μM mandipropamid or mock solutions made in water containing 0.02% Silwet L-77. 20 hours later the leaves were homogenized in liquid nitrogen, re-suspended in an extraction buffer composed of 1×TBS, 0.1% NP-40, 1 mM DTT, 10% glycerol, and 1× plant protease inhibitor cocktail (Sigma, USA) and clarified by centrifugation. […] Both PYR1^MANDI and HAB1 were expressed as GFP fusion proteins and could therefore be detected with an anti-GFP antibody. The blots were probed with an anti-GFP monoclonal primary antibody and detected using an anti-mouse IgG-HP sheep secondary antibody using ECL (Amersham, USA) development."}, "[2]": {"system": "35S::PYR1^MANDI transgenic seeds", "assay": "seed germination on mandipropamid medium", "assay_type": "in vivo, Arabidopsis", "conditions": "1 μM mandipropamid", "description": "(§1) We generated a series of transgenic plants expressing PYR1^MANDI under the control of either the cauliflower mosaic virus 35S or Arabidopsis Rubisco small subunit 3B promoters (RBCS). These were generated for the purpose of examining the physiological efficacy of the PYR1^MANDI-mandipropamid system for regulating ABA responses in planta. The PYR1^MANDI coding sequence was PCR amplified from pBD-PYR1^MANDI template and cloned into the plant transformation vector pEGAD under control of the 35S promoter. For the RBCS driven construct, the 35S promoter in pEGAD was replaced with the RBCS promoter, which was amplified from Arabidopsis genomic DNA by PCR; the pEGAD vector contains a glufosinate resistance gene and allows selection of transgenics in soil using commercially available formulations of glufosinate. These two constructs, p35S::PYR1^MANDI and pRBCS::PYR1^MANDI, were introduced into Agrobacterium tumefacians GV3101 and then used to transform Arabidopsis using the floral dip method (Clough and Bent, 1998) and the resultant seed germinated in soil and treated with glufosinate to identify transformed plants. Seed from approximately 15-16 transgenic plants were harvested individually and then characterized. It is well known that ABA inhibits seed germination. […]"}, "[3]": {"system": "RBCS::PYR1^MANDI transgenic seeds", "assay": "seed germination on mandipropamid medium", "assay_type": "in vivo, Arabidopsis", "conditions": "1 μM mandipropamid", "description": "as §1"}, "[4]": {"system": "PYR1^MANDI expressing transgenic plants (E15, E16, F29, F34)", "assay": "water loss of detached rosettes", "assay_type": "in vivo, Arabidopsis", "conditions": "2 μM mandipropamid, 24 hours before detachment", "procedure": "As another measure of guard cell physiology, we measured rates of water loss in transgenic and control plants exposed to mock or mandipropamid treatments. It is well known that ABA treatments reduce leaf water loss via guard cell closure. 3 week-old homozygous transgenic plants (E15, E16, F29 and F34) and control wild type plants were treated with 2 μM mandipropamid or mock solutions (with 0.02% Silwet as described above). After 24 hours, whole rosettes were detached and their masses monitored over time. […] These experiments, together with the thermal imaging experiments, indicate that mandipropamid can reduce guard cell aperture and reduce transpiration rates in PYR1^MANDI expressing transgenic plants, just as ABA is well known to do to wild type plants."}, "[5]": {"system": "MDP1 and MDP2 transgenic plants", "assay": "qRT-PCR of ABA-regulated genes RD29B and RAB18", "assay_type": "in vivo, Arabidopsis", "conditions": "MDP1 and MDP2, 2 μM mandipropamid, 8 hours", "procedure": "(§2) One of ABA's major effects is to regulate gene expression. We therefore examined the effects of ABA and mandipropamid on gene expression in wild type, PYR-OX, MDP1 and MPD2 transgenic plants. Seed of the wild type or transgenic lines were surface sterilized, stratified for 4 days at 4° C. and then grown for 10 days at room temperature under continuous illumination in a liquid culture consisting of 0.5×MS salts and 0.5% sucrose and grown with continuous shaking to provide aeration. After 10 days, the culture solutions were adjusted to contain 50 μM ABA, 2 μM mandipropamid, or a mock treatment. After 8 hours exposure to the test compounds RNA was isolated using RNAEasy™ Plant RNA isolation kit (Qiagen, USA) and treated with DNAse. The purified RNA was utilized in qRT-PCR reactions using primers for the ABA-regulated genes RD29B or RAB18. Biological triplicate and triple technical replicate measurements were conducted. To perform qRT-PCR analyses, cDNA was generated from 5 μg of total RNA using superscript reverse transcriptase III (Invitrogen, USA), in reaction mixture containing a oligo-dT20 (SEQ ID NO:110) and a ribosomal RNA primer. Real-time quantitative PCR analysis was performed by ΔCt method of relative quantification. PCR mixtures contained cDNA, Maxima® SYBR green/Fluorescein qPCR master mix (Fermentas, USA) and 330 nM of each gene-specific primer. RT-PCRs were conducted using a BioRad CFX96 Real-Time PCR System and the data were processed using the BioRad CFX Manager software (BioRad, USA). PCRs were performed under the following cycling conditions: 3 min at 95° C., followed by 40 cycles of 10 sec at 95° C., 10 sec at 55° C. and 30 sec at 72° C. in 96-well optical reaction plates (BioRad, USA). The specificity of amplicons was verified by melting curve (disassociation) analysis (60-95° C.) after 40 cycles. Input cDNA was normalized using an internal control gene, PEX4 (AT5G25760)."}, "wild type": {"system": "wild type", "assay": "qRT-PCR of ABA-regulated genes RD29B and RAB18", "assay_type": "in vivo, Arabidopsis", "conditions": "2 μM mandipropamid, 8 hours", "procedure": "as §2"}}}
{"smiles": "C#CCOc1ccc(CCNC(=O)C(OCC#C)c2ccc(Cl)cc2)cc1OC", "note": "(stereo not drawn) [Mandipropamid, mandipropamid]", "values": [{"measurement": "interaction of 6×-His-GFP-PYR1^MANDI and GFP-HAB1 in planta", "setting": "[1]", "value": "mandipropamid-dependent physical interaction"}, {"measurement": "transgenic plants whose germination was inhibited by mandipropamid", "setting": "[2]", "value": "5 of the 15"}, {"measurement": "transgenic plants whose germination was inhibited by mandipropamid", "setting": "[3]", "value": "7 of the 16"}, {"measurement": "water loss of detached rosettes", "setting": "[4]", "value": "lower water loss"}, {"measurement": "transcription of RD29B and RAB18", "setting": "[5]", "value": "high-level transcription"}, {"measurement": "transcription of RD29B and RAB18", "setting": "wild type", "value": "does not do so"}]}
